# From patent US12084422B2, “Phenyl-n-quinoline derivatives for treating a RNA virus infection” (ABIVAX, priority 2018, dated 2024)
# Tests used:
# RSV A2 = assay: Screening for RSV inhibition using Viral ToxGlo assay in HEp-2 cells; format: cell-based; settings: human respiratory syncytial virus, HEp-2, 72 h
# Protocol: Protocol for Screening Antiviral Compounds for RSV Inhibition and Cytotoxicity Using Viral ToxGlo Assay
# HEp-2 cells were maintained in Eagle's minimum essential medium (EMEM) with Earle's BSS adjusted to contain 2 mM L-glutamine, 10% fetal bovine serum, 100 U/ml penicillin and 100 μg/ml streptomycin. For the purposes of the screening assay they were grown to 90% confluency, trypsinized and recovered. The trypsin was neutralised with cell culture media and cells were centrifuged at 150×g for 5 minutes before discarding the supernatant and resuspending cell pellet in assay media (EMEM with Earle's BSS adjusted to contain 2 mM L-glutamine, 2% fetal bovine serum and 100 U/ml penicillin and 100 μg/ml streptomycin). The cells were seeded into white clear-bottomed cell culture plates at a density of 1.5×10^4 cells/well in 50 μl and 4×10^3 cells/well in 25 μl for 96 well plates and 384 well plates respectively. For the media/background control column assay media only was added. Cell plates were placed in a humid chamber and incubated overnight at 37° C./5% CO2. After overnight incubation cells were checked for confluency and healthy appearance.
# Test articles were made up at 10× test concentration in a maximum DMSO concentration of 10% (final assay concentration maximal 1% DMSO) and added to the cell plates in volumes of 10 μl for 96 well plates and 5 μl for 384 well plates. For cell control and virus control wells the test article solvent only was added. Virus or assay media for cytotoxicity test wells and media/cell control wells was added immediately after test articles at an MOI of 0.5, 40 or 20 μl for 96 and 384 well plates respectively. Virus suspension was prepared by thawing RSV A2 frozen stocks and diluting to the required concentration of plaque forming units in assay media on ice.
# (§1) Cell plates were further incubated inside a humid chamber for 72 h p.i at 37° C./5% CO2. After the incubation period cells were observed under the microscope to check for characteristic cytopathic effect in virus control wells and healthy cells in the cell control wells. After plates were adjusted to room temperature 20/40 μl Viral ToxGlo (Promega) was added to each well of the 384/96 well cell plates. Plates were incubated at room temperature, protected from light on a plate rocker for 20 minutes before measuring the luminescence on a spectrophotometer (Biotek Synergy HTX).
# RSV inhibition was calculated as percentage of cytopathic effect inhibition relative to the virus control and cytotoxicity as percentage of cell survival relative to cell control wells. This allowed EC50 values to be calculated for each test article where a virus inhibition or cytotoxic dose response was identified. EC50 values ranging between 0.001 µM and 5 μM could thus be determined for compounds 1, 6, 10, 13, 28, 38, 43, 47, 48, 49, 50, 51, 52, 53, 54, 55, 56 and 57.
# DENV-2 strain 16681 = assay: Screening for DENV-2 inhibition using Viral ToxGlo assay in A549 cells; format: cell-based, Dengue 2 virus; settings: Dengue virus, DENV2, A549, 120 h, read-out: % DENV-2 Inhibition Mean (n = 3)
# Protocol: Protocol for Screening Antiviral Compounds for DENV-2 Inhibition and Cytotoxicity Using Viral ToxGlo Assay
# A549 cells were maintained in Dulbecco's Modified Eagle Medium (DMEM) supplemented with 10% fetal bovine serum, 100 U/ml penicillin and 100 μg/ml streptomycin. For the purposes of the screening assay they were grown to 90% confluency, trypsinized and recovered. The trypsin was neutralised with cell culture media and cells were centrifuged at 150×g for 5 minutes before discarding the supernatant and resuspending cell pellet in assay media (DMEM supplemented with 2% fetal bovine serum and 100 U/ml penicillin and 100 μg/ml streptomycin). The cells were seeded into 96-well white clear-bottomed cell culture plates at a density of 1.0×10^4 cells/well in 50 μl. For the media/background control column assay media only was added. Cell plates were placed in a humid chamber and incubated overnight at 37° C./5% CO2. After overnight incubation cells were checked for confluency and healthy appearance.
# Test compounds were prepared at a final concentration of 10 μM, in a maximum DMSO concentration of 1% (final assay concentration maximal 0.1% DMSO) and added to the cell plates in volumes of 10 μl. For cell control and virus control wells the test article solvent only was added. As a positive inhibition control, 7-Deaza-2′-C-methyladenosine was added at 100 μM in 3 wells. Virus (DENV-2 strain 16681) or assay media for cytotoxicity test wells and media/cell control wells was added immediately after test articles at an MOI of 0.5, 40 for 96 well plates respectively. Virus suspension was prepared by thawing DENV-2 frozen stocks and diluting to the required concentration of plaque forming units in assay media.
# as §1, with “5 days” for “72 h”, “20” for “20/40”, “96-well” for “384/96 well”, “temperature” for “temperature, protected from light on a plate rocker”, “5” for “20”, “(Envision, PerkinElmer).” for “(Biotek Synergy HTX).”
# DENV-2 inhibition was calculated as percentage of cytopathic effect inhibition relative to the virus control and cytotoxicity as percentage of cell survival relative to cell control wells.
SMILES,EC50 (RSV A2) [nM],inhibition at 10 µM (DENV-2 strain 16681) [%]
"Cc1cc(OC(C)C)ccc1Nc1ccc2cccc(Cl)c2n1 [Compound 10, 8-chloro-N-(4-isopropoxy-2-methylphenyl)quinolin-2-amine]",585,79
"CCc1cc(OC(C)C)ccc1Nc1ccc2cccc(Cl)c2n1 [Compound 13, 8-chloro-N-(2-ethyl-4-isopropoxyphenyl)quinolin-2-amine]",1180,117
"Cc1cc(OC(C)C)c(C)cc1Nc1ccc2cccc(Cl)c2n1 [Compound 43, 8-chloro-N-(4-isopropoxy-2,5-dimethylphenyl)quinolin-2-amine]",348,68
